Experimental data published in patent US20110269790A1, “NOVEL THIENOPYRIDINES AS PHARMACOLOGICALLY ACTIVE AGENTS” (priority 2009, published 2011).

Key:
mice = assay: Adenosine mediated bronchoconstriction and lung inflammation in an allergic mouse model; type: in vivo; design: Total count: unit not given here; details: BAL fluid cells; 100 mg/kg oral
Method: Thienopyridines were proven as potent cytotoxic and anti-inflammatory agents in the previous experimental results. In cytotoxic MTT assay, activity of these molecules may be due to the involvement of adenosine receptors. Further, to find the bronchodilatory activity of these moieties and to find the involvement of adenosine receptors in their action, non-invasive and invasive adenosine mediated bronchoconstriction and lung inflammation in an allergic mouse model was performed.
Male mice, 6-8 weeks of age, free of specific pathogens were obtained from National Institute of Nutrition. The animals were maintained on a ragweed-free diet. All experimental protocols used in this study were under a protocol approved by animal ethical committee. Sensitization was performed according to the modified procedure described by Fan et al, 2002. Mice were sensitized on days 1 and 6 with i.p. injections of ragweed allergen (200 μg/200 μl of water for injection). Non-sensitized control animals received only water for injection with the same volumes. Ten days after sensitization, the mice were placed in plexiglas chamber and challenged with 0.5% ragweed or with 0.9% saline as a control for twenty minutes both in the morning and evening for three days. Then mice were divided into different groups consisting of six animals each. The groups including a control without sensitization; a sensitized group and a standard group along with groups of the test molecules were separated. Twenty-four hours after last challenge with ragweed, the mice were given an oral dose of test molecules and theophylline (100 mg/kg body weight) as acacia suspension. Two hours after administration of the oral dose, the mice were challenged with adenosine solution (24 mg/ml). The variation in respiration was recorded after anaesthetizing them with pentobarbitone sodium (0.1 ml 200 mg/ml ip) using kymograph. Then, mice were sacrificed and trachea was cannulated to collect the bronchoalveolar lavage fluid. This was performed by pumping 1 ml phosphate buffered saline into lungs through tracheal cannula and collecting the sample. Analysis of BAL fluid was performed to get the cellular differentials. The BAL fluid was centrifugated at 1500 rpm for six minutes at room temparature. After removing the supernatant, BAL cells were resuspended in 1 ml of phosphate buffered saline. Total cells were then counted manually in a hemocytometer chamber. A differential count of at least 300 cells was made according to the standard morphologic criteria and results were mentioned in table.

IL-1β = IL-1β in paw tissue and serum, collagen induced arthritis; type: in vivo, rat; details: for Inhibition of IL-1β in paw tissues: collagen induced study, day 24, 100 mg/kg/day; for Reduction of IL-1β levels in serum: collagen study, vs arthritic control
Text: It is believed that these proinflammatory cytokines help to propagate a local or systemic inflammatory process, and to induce biosynthesis and secretion of metalloproteinases (MMPs) and osteoclasts that critically contribute to degradation of extracellular matrix and erosion of bone respectively (Burger et al., 1998; Gravallese and Goldring, 2000; Smolen and Steiner, 2003).
On termination day blood samples were collected and serum was used for the estimation of Both TNF-α and IL-1β levels in FCA and Collagen induced studies. Both the parameters were determined using ELISA kits.

TNF-α = TNF-α in rat paw tissue, FCA model (ELISA); type: in vivo; details: termination day
Method: (§1) Group I—Normal Control; Group II—Arthritic control; Group III—Arthritic rats administered with Synthetic compound BN-4; Group IV—arthritic rats administered with compound BN-14; Group V—arthritic rats administered with BN-16; Group VI—arthritic rats administered with standard drug indomethacin. Administration of test compounds and indomethacin started on the same day of adjuvant injection at the dose of 100 and 2.5 mg/kg respectively. The test and indomethacin doses continued up to 21 days in FCA induced model and 24 days in collagen induced model. During the study period the paw volumes were measured on 5th, 12th, 18th and 21 st days and the weight of the animals was also recorded at different time intervals. At each time point the percentage of inhibition of paw volume was calculated with reference to mean paw volume of control group In FCA model, animals were sacrificed on 21st day by cervical dislocation. Before sacrificing the animals, blood was collected and used for estimation of total leukocyte count, TNF-α and IL-1β.
In FCA induced study paw tissues were collected on termination day and estimated TNF-α and IL-1β levels for all the groups by ELISA method.

nitric oxide = assay: Nitric oxide inhibition assay, sodium nitroprusside method; details: Griess reagent, vs control
Wistar rats = assay: Freund's complete adjuvant (FCA) induced arthritis; type: in vivo, rat; details: BN compounds 100 mg/kg; for % Of inhibition, 5th Day / % Of inhibition, 12th Day / % Of inhibition, 18th Day / Body weight index, 21st DAY / Paw volume, 5th Day / Paw volume, 12th Day / Paw volume, 18th Day / Paw volume, 21st Day: indomethacin 2.5 mg/kg daily; for Body weight index, 21st DAY / Body weight index, 1st DAY: FCA study; for Paw volume, 5th Day / Paw volume, 12th Day / Paw volume, 18th Day / Paw volume, 21st Day: in mL (unit assumed); for Body weight index, 1st DAY: indomethacin 2.5 mg/kg; for Total WBC count: termination day, FCA model, Indomethacin 2.5 mg/kg
Method: Induction of Arthritis: Arthritis was induced by injecting Freund's complete adjuvant (FCA. Required quantity of FCA was weighed and suspension made with paraffin oil (DIFCO Laboratories) and administered at dose of 0.5 mg/rat in subplantar region of the right hind paw. After 7 days, a booster injection was given to all animals to hind paws.
Experimental Design Animals were divided into 6 groups of 6 rats each and were designated as:
as §1
Clinical Assessment of Adjuvant arthritis: Rats were examined for visual appearance of arthritis and the lesion of erythema and inflammation of periarticular tissues on 14th day, 18th day and on 21st day. Arthritis scoring scale as follows:
2=Mild swelling and erythema of the limb 3=Gross swelling and erythema of the limb 4=Gross deformity and inability to use the limb
The arthritis score of each rat was the sum of the scores of both hind limbs and maximum score was being 8 for each rat.

| Compound | Differential count (%) Eosinophils (mice) [%] | Differential count (%) Lymphocytes (mice) [%] | Differential count (%) Monocytes (mice) [%] | Total count (mice) | Inhibition of IL-1β in paw tissues (IL-1β) | Reduction of IL-1β levels in serum (IL-1β) | % Inhibition (TNF-α) (TNF-α) [%] | NO release in Sodium Nitroprusside method (nitric oxide) | % Of inhibition, 5th Day (Wistar rats) [%] | % Of inhibition, 12th Day (Wistar rats) [%] | % Of inhibition, 18th Day (Wistar rats) [%] | Body weight index, 21st DAY (Wistar rats) | Paw volume, 5th Day (Wistar rats) | Paw volume, 12th Day (Wistar rats) | Paw volume, 18th Day (Wistar rats) | Paw volume, 21st Day (Wistar rats) | Body weight index, 1st DAY (Wistar rats) | Total WBC count (Wistar rats) |
| --- | --- | --- | --- | --- | --- | --- | --- | --- | --- | --- | --- | --- | --- | --- | --- | --- | --- | --- |
| Cc1sc2nc3c(c(N)c2c1C)CCC3 [BN-1, 2,3-dimethyl-6,7-dihydro-5H-cyclopenta[b]thieno[3,2-e]pyridin-4-amine] | 12 | 65 | 20 | 12 |  |  |  |  |  |  |  |  |  |  |  |  |  |  |
| Cc1sc2nc3c(c(N)c2c1C)CCCCC3 [BN-4, 2,3-dimethyl-6,7,8,9-tetrahydro-5H-cyclohepta[b]thieno[3,2-e]pyridin-4-amine] |  | 80 | 20 | 9 | more significant inhibition (p<0.01) | more significantly (p<0.01) reduced | 42.9 ± 3.78 | significantly inhibited | 36.41 ± 3.84 | 42.88 ± 8.45 | 40.71 ± 7.59 | 199.87 ± 4.76 | 1.51 ± 0.09 | 1.42 ± 0.21 | 1.55 ± 0.20 | 1.63 ± 0.12 | 155.15 ± 3.1 | 18.53±1.36 |
| Nc1c2c(nc3sc4c(c13)CCCC4)CCCC2 [BN-6, 1,2,3,4,7,8,9,10-Octahydrobenzo[4,5]thieno[2,3-b]quinolin-11-amine] | 15 | 75 | 10 | 10.5 |  |  |  |  |  |  |  |  |  |  |  |  |  |  |
| CC1CCc2c(nc3sc4c(c3c2N)CCCC4)C1 (stereo not shown) [BN-7, 8-Methyl-1,2,3,4,7,8,9,10-octahydrobenzo[4,5]thieno[2,3-b]quinolin-11-amine] | 20 | 70 | 10 | 7 |  |  |  |  |  |  |  |  |  |  |  |  |  |  |
| Nc1c2c(nc3sc4c(c13)CCCC4)CCCCC2 [BN-8, 2,3,4,7,8,9,10,11-Octahydro-1H-benzo[4,5]thieno[2,3-b]cyclohepta [e]pyridin-12-amine] | 20 | 70 | 10 | 14 |  |  |  |  |  |  |  |  |  |  |  |  |  |  |
| Nc1c2c(nc3sc4c(c13)CCC4)CCC2 [BN-13, 1,2,3,6,7,8-hexahydrocyclopenta [b]cyclopenta[4,5] thieno[3,2-e]pyridin-9-amine] | 20 | 74 | 16.5 | 8 |  |  |  |  |  |  |  |  |  |  |  |  |  |  |
| Nc1c2c(nc3sc4c(c13)CCC4)CCCC2 [BN-14, 2,3,6,7,8,9-Hexahydro-1H-cyclopenta[4,5]thieno[2,3-b]quinolin-10-amine] | 15 | 80 | 13.5 | 13.5 | more significant inhibition (p<0.01) | moderate inhibition (p<0.05) | 38.03 ± 9.73 | significantly inhibited | 19.47 ± 1.38 | 37.90 ± 4.12 |  | 201.51 ± 6.61 | 1.92 ± 0.03 | 1.54 ± 0.10 | 1.51 ± 0.14 | 1.40 ± 0.02 | 158.02 ± 2.51 | 19.70±0.66 |
| CC1CCc2c(nc3sc4c(c3c2N)CCC4)C1 (stereo not shown) [BN-15, 7-Methyl-2,3,6,7,8,9-hexahydro-1H-cyclopenta[4,5]thieno[2,3-b]quinolin-10-amine] | 10 | 63.5 | 16.5 | 13 |  |  |  |  |  |  |  |  |  |  |  |  |  |  |
| Nc1c2c(nc3sc4c(c13)CCC4)CCCCCC2 [BN-17, 2,3,6,7,8,9,10,11-Octahydro-1H-cycloocta [b]cyclopenta[4,5]thieno[3,2-e]pyridin-12-amine] | 25 | 75 | 9 | 9 |  |  |  |  |  |  |  |  |  |  |  |  |  |  |
| Nc1c2c(nc3sc4c(c13)CCCCC4)CCC2 [BN-18, 1,2,3,6,7,8,9,10-Octahydrocyclohepta[4,5] thieno[2,3-b]cyclopenta [e]pyridin-11-amine] | 20 | 70 | 15 | 18 |  |  |  |  |  |  |  |  |  |  |  |  |  |  |
| COc1ccc2c(c1)c(CC(=O)O)c(C)n2C(=O)c1ccc(Cl)cc1 [Indomethacin, reference compound] |  |  |  |  | moderate inhibition (p<0.05) | moderate inhibition (p<0.05) | 29.06 ± 0.06 |  | 37.25 ± 2.36 | 45.43 ± 3.56 | 45.80 ± 6.09 | 182.68 ± 4.91 | 1.49 ± 0.06 | 1.35 ± 0.09 | 1.42 ± 0.02 | 1.43 ± 0.08 | 157.85 ± 2.08 | 20.67±0.59 |
